# Literature values, collected in patent publication US11826376B2, “Methods of treating heart failure with preserved ejection fraction employing dapagliflozin and compositions comprising the same” (AstraZeneca AB, priority 2018, dated 2023).
# What was measured:
# [1] = biological target: human renal SGLT2 (Homo sapiens, UniProt P31639); settings: background statement, no data
# Chain of human renal SGLT2 (P31639 whole entry): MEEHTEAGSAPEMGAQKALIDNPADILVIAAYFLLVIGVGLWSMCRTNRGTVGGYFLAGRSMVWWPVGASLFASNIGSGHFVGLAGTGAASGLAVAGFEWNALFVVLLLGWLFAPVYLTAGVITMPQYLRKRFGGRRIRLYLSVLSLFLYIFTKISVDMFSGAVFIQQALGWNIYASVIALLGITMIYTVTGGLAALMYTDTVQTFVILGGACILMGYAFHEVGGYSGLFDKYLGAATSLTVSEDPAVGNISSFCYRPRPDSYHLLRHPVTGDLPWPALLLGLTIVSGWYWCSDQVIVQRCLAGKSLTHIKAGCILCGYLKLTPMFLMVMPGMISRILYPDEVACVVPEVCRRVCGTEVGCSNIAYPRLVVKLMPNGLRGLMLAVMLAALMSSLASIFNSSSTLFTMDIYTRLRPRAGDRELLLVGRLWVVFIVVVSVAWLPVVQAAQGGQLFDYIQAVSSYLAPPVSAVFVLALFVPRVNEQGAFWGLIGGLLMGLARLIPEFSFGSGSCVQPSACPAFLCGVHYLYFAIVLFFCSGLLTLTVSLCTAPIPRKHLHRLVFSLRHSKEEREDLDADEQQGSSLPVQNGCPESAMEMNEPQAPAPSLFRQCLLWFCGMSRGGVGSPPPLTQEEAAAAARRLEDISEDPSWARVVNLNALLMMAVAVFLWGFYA
smiles,measurement,setting,value
"CCOc1ccc(Cc2cc([C@@H]3O[C@H](CO)[C@@H](O)[C@H](O)[C@H]3O)ccc2Cl)cc1 [Dapagliflozin, dapagliflozin]",albuminuria,Shigiyama et al. 2017,reduce
same,arterial stiffness,Shigiyama et al. 2017,reduces
same,blood uric acid,Shigiyama et al. 2017,reduce
same,systolic blood pressure,Shigiyama et al. 2017,reduce
same,weight,Shigiyama et al. 2017,reduce
same,HbA1c,background statement,effectively lowers
same,risk of inducing hypoglycaemia,background statement,low risk
same,inhibitor of human renal SGLT2,[1],"potent, highly selective"
